# Results: US12503704B2, “Modified cell” (Oxford University Innovation Limited, priority 2019, dated 2025)
# Read-outs that look alike come from different tables or passages of the source.
# Experiments:
# [1] = tested on: fibroblasts; A549, Mo59K, and RD cancer cells
# [2] = tested on: glioblastoma (Mo59K) cancer cell line; assay: Cell viability assay (crystal violet); format: cell-based; details: catechol at concentrations as low as 100 μM, 24 hours
# [3] = tested on: rhabdomyosarcoma (RD) cancer cell line; assay: Cell viability assay (crystal violet); format: cell-based; details: catechol at concentrations as low as 100 μM, 24 hours
# [4] = tested on: A549 lung cancer cell line; assay: Cell viability assay (crystal violet); format: cell-based; details: catechol at concentrations as low as 100 μM, 24 hours
# [5] = tested on: fibroblast control cell line (Fibroblasts); assay: Cell viability assay (crystal violet); format: cell-based; details: catechol at concentrations as low as 100 μM, 24 hours
# [6] = tested on: fibroblasts; A549, Mo59K, and RD cancer cells; assay: Cell viability assay with supplements, all mammalian cell lines; details: PBS control
# [7] = tested on: SalAR circuit; assay: GFP output after induction of the SalAR circuit (pSalAR-GFP) in parent cells; format: cell-based, Escherichia coli
# Source text: FIGS. 33A-33E: The levels of GFP over time after induction of the SalAR circuit can act as an indicator for the kinetics of catechol production. Production of GFP by parent cells with the pSalAR-GFP plasmid and FIG. 33A without an additional glycolysis pathway (pSEVA224) or FIG. 33B with an additional glycolysis pathway (pSEVA224-GB3). […] FIG. 33C Ratio of fluorescent output of induced cells versus cells not induced with SA. In parent cells GFP production increased by about 1.5 and 2-fold when induced with 100 μM and 500 μM SA, respectively. FIG. 33D Catechol production by E. coli. LB agar plates with aspirin and salicylic acid have no color (top), while catechol is distinctly brown (bottom). When E. coli with pSalAR-GFP was plated on agar with inducers 2 mM Aspirin (bottom middle) or 2 mM salicylic acid (bottom right) catechol was produced and diffused out of the cell, tinting the agar brown. […] FIG. 33E The color of the supernatant darkens as inducer concentration increases, indicating production and export of catechol. SA: salicylic acid, ASA: acetylsalicylic acid (aspirin).
# [8] = tested on: parent cells; assay: Screen of D-cycloserine concentrations to maintain SimCell purity; format: cell-based, Escherichia coli; details: little to no increase in OD
# Method: A protocol for minimal cell purification from Heinemann and Ankenbauer was adapted for SimCell purification (12)^a. Mixed cultures of SimCells and parent cells were treated with D-cycloserine to kill actively dividing cells. D-cycloserine was added at a concentration of 200 μg/mL and cells were left to incubate at 37° C. and shake for 1.5 hours before D-cycloserine was added again at the same concentration. After 24 hours of treatment with D-cycloserine, cells were spun down and washed twice with phosphate buffered saline (PBS). When pure SimCell cultures were induced for protein expression, 25 μg/mL D-cycloserine was added every two days to prevent parent cell growth but allow SimCells to be functional.
# Further optimization of D-cycloserine concentration ensured pure SimCell populations in the following experiments, and excluded the contribution made by remaining parent cells in SimCell populations. After a screen of D-cycloserine concentrations, 25 μg/mL was determined to be the point where parent cells were killed in the culture evidenced by little to no increase in OD (Table S3) but also permitted protein production or other activities in SimCells. By using D-cycloserine which targets active, parent cells, we were able to distinguish activity from SimCells on a larger, culture-level scale for further characterization.
# [9] = tested on: ICeuI+ Glycolysis+ strain; assay: D-cycloserine treatment, plate counts over time; format: cell-based, Escherichia coli; details: 200 μg/mL D-cycloserine at time 0 and 1.5 hours
# [10] = tested on: ICeuI+ Glycolysis− strain; assay: D-cycloserine treatment, plate counts over time; format: cell-based, Escherichia coli; details: 200 μg/mL D-cycloserine at time 0 and 1.5 hours
# [11] = tested on: ICeuI− Glycolysis+ strain; assay: D-cycloserine treatment, plate counts over time; format: cell-based, Escherichia coli; details: 200 μg/mL D-cycloserine at time 0 and 1.5 hours
# [12] = tested on: ICeuI− Glycolysis− strain; assay: D-cycloserine treatment, plate counts over time; format: cell-based, Escherichia coli; details: 200 μg/mL D-cycloserine at time 0 and 1.5 hours
compound,measurement,setting,value
"CC(=O)Oc1ccccc1C(=O)O [aspirin, acetylsalicylic acid]",effect of supplement alone on viability of mammalian cell lines,[1],no adverse effects
"Oc1ccccc1O [catechol, 1,2-dihydroxybenzene]",cell viability,[2],significantly decreased the viability
same,cell viability,[3],significantly decreased the viability
same,cell viability,[4],significantly decreased the viability
same,cell viability,[5],less of an adverse effect
"O=C(O)c1ccccc1O [SA, salicylic acid]",effect of supplement alone on viability of mammalian cell lines,[6],did not cause cell death
same,"increase in GFP production, induced versus not induced",[7]; 100 μM SA,about 1.5 fold
same,"increase in GFP production, induced versus not induced",[7]; 500 μM SA,~2 fold
same,effect of supplement alone on viability of mammalian cell lines,[1],no adverse effects
N[C@@H]1CONC1=O [D-cycloserine],D-cycloserine concentration at which parent cells were killed while SimCell activity was permitted,[8],25 µg/mL
same,CFU/mL,[9]; time 0 hr,3.08 × 10^5 CFU/mL
same,CFU/mL,[9]; time 1.5 hr,2.7 × 10^3 CFU/mL
same,CFU/mL,[9]; time 5 hr,7.5 × 10^2 CFU/mL
same,CFU/mL,[9]; time 24 hr,0 CFU/mL
same,CFU/mL,[10]; time 0 hr,3.5 × 10^5 CFU/mL
same,CFU/mL,[10]; time 1.5 hr,4.1 × 10^3 CFU/mL
same,CFU/mL,[10]; time 5 hr,7.2 × 10^2 CFU/mL
same,CFU/mL,[10]; time 24 hr,0 CFU/mL
same,CFU/mL,[11]; time 0 hr,1.0 × 10^9 CFU/mL
same,CFU/mL,[11]; time 1.5 hr,6.9 × 10^8 CFU/mL
same,CFU/mL,[11]; time 5 hr,4 × 10^7 CFU/mL
same,CFU/mL,[11]; time 24 hr,8.3 × 10^4 CFU/mL
same,CFU/mL,[12]; time 0 hr,1.8 × 10^9 CFU/mL
same,CFU/mL,[12]; time 1.5 hr,1.1 × 10^9 CFU/mL
same,CFU/mL,[12]; time 5 hr,1.3 × 10^7 CFU/mL
same,CFU/mL,[12]; time 24 hr,1.6 × 10^7 CFU/mL
